{
  "source": "patent US20090275099A1",
  "about": "(priority 2004, published 2009)",
  "key": {"[1]": {"target": "F1F0-ATPase (Homo sapiens, UniProt P05496+P48047)", "assay": "inhibition of the F1F0-ATPase (potencies stated in the description)", "format": "biochemical"}, "[2]": {"target": "mitochondrial F1F0-ATPase (Bos taurus, UniProt P13621+P32876)", "assay": "biochemical", "parameters": "species or system bovine", "conditions": "for EC50: bovine SMPs"}, "[3]": {"target": "T1, human OSCP (Homo sapiens, UniProt P48047)", "T1 construct": "made in house; host or cells: E. coli", "T1 sequence (P48047 24-213)": "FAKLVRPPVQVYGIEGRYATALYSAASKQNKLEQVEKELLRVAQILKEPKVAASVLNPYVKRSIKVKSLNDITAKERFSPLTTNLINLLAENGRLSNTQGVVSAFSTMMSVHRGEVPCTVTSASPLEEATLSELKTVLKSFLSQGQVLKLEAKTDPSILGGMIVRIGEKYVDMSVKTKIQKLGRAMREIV", "assay": "OSCP binding by quenching of intrinsic protein fluorescence", "description": "To determine if Bz-423 indeed binds to the OSCP and the affinity of the interaction, human OSCP was overexpressed in E. coli. […] Bz-423 is the only known inhibitor of the ATPase that functions through binding to the OSCP."}, "[4]": {"test_system": "Ramos cells", "assay": "antiproliferation, 72 h, 10% FBS", "format": "cell-based", "conditions": "Homo sapiens, read-out: ED50 for antiproliferation", "description": "(§1) Like most 1,4-benzodiazepines, Bz-423 binds strongly to bovine serum albumin (BSA), which reduces the effective concentration of drug free in solution. For example, in tissue culture media containing 10% (v/v) fetal bovine serum (FBS), ca. 99% of the drug is bound to BSA. Therefore, cell culture cytotoxicity assays are conducted in media with 2% FBS to reduce binding to BSA and increase the free [Bz-423]. Under these conditions, the dose response-curve is quite sharp such that there is a limited concentration range at which Bz-423 is only partly effective. Since some benzodiazepines are known to have anti-proliferative properties, the effect of Bz-423 at concentrations <ED50 were carefully analyzed and observed that in addition to inducing apoptosis, Bz-423 prevented cell growth after 3 d in culture. In these low serum conditions, the cytotoxic and anti-proliferative effects overlapped making it difficult to study each effect independently. […] While higher amounts of drug may also block proliferation, it caused apoptosis well before the effects on proliferation could be observed.\n(§2) To confirm the decrease in cell number relative to control cells after 3 d of treatment is due to decreased proliferation and not cell death balanced by proliferation, in addition to cell counting, cell divisions were studied. PKH-67 is a fluorescent probe that binds irreversibly to cell membranes and upon cell division is partitioned equally between the daughter cells, making it possible to quantify cell division by flow cytometry. Ramos cells stained with PKH67 and treated with Bz-423 had fewer cell divisions at sub-cytotoxic concentrations which confirmed that the decrease in cell number was due to anti-proliferative affects and not cell death. To determine if Bz-423 induced anti-proliferation was specific to Ramos cells, cell counting and cell cycle experiments were done in other B cell lines and cell lines derived from solid tumors."}, "[5]": {"test_system": "Ramos clones transfected to overexpress Bcl-2", "assay": "antiproliferation, 72 h, 10% FBS", "format": "cell-based", "conditions": "Homo sapiens, Bcl-2, 72 h, read-out: ED50 for antiproliferation", "description": "as §1, §2"}, "[6]": {"test_system": "Ramos clones transfected to overexpress Bcl-xL", "assay": "antiproliferation, 72 h, 10% FBS", "format": "cell-based", "conditions": "Homo sapiens, read-out: ED50 for antiproliferation", "description": "as §1, §2"}, "[7]": {"test_system": "malignant B cell line CA46", "assay": "antiproliferation, 72 h, 10% FBS", "format": "cell-based", "conditions": "Homo sapiens, CA46, 72 h, read-out: ED50 for antiproliferation", "description": "as §1, §2"}, "[8]": {"test_system": "malignant B cell line Raji", "assay": "antiproliferation, 72 h, 10% FBS", "format": "cell-based", "conditions": "Homo sapiens, read-out: ED50 for antiproliferation", "description": "as §1, §2"}, "[9]": {"test_system": "neuroblastoma cell line IMR-32", "assay": "antiproliferation, 72 h, 10% FBS", "format": "cell-based", "conditions": "Homo sapiens, IMR-32, 72 h, read-out: ED50 for antiproliferation", "description": "as §1, §2"}, "[10]": {"test_system": "neuroblastoma cell line Lan-1", "assay": "antiproliferation, 72 h, 10% FBS", "format": "cell-based", "conditions": "LAN1, Lan-1, 72 h, read-out: ED50 for antiproliferation", "description": "as §1, §2"}, "[11]": {"test_system": "neuroblastoma cell line SHEP-1", "assay": "antiproliferation, 72 h, 10% FBS", "format": "cell-based", "conditions": "SH-EP1, SHEP-1, 72 h, read-out: ED50 for antiproliferation", "description": "as §1, §2"}, "[12]": {"test_system": "ovarian cells with null p53 (SKOV3)", "assay": "antiproliferation, 72 h, 10% FBS", "format": "cell-based", "conditions": "Homo sapiens, SK-OV-3, SKOV3, 72 h, read-out: ED50 for antiproliferation", "description": "as §1, §2"}, "[13]": {"test_system": "fibroblasts", "assay": "intracellular ROS (DCF, flow cytometry)", "format": "cell-based, human", "description": "(§3) Foreskin tissue obtained from neonatal circumcisions was used as a source of epidermal keratinocytes and dermal fibroblasts. The use of foreskin tissue in this project was approved by the University of Michigan Institutional Review Board. Epidermal keratinocytes were isolated from foreskin tissue as described previously (see, e.g., Varani J, et al., (1994) J. Clin. Invest. 94:1747-1753; herein incorporated by reference in its entirety). Primary and early passage cells were maintained in Keratinocyte Growth Medium (KGM) (Cambrex Bioscience.). […]\n(§4) 2′,7′-dichlorodihydrofluorescin diacetate (DCFH-DA, Molecular Probes, Eugene, Oreg.) was prepared as a 10 mM stock solution in DMSO prior to each use. […] After the indicated treatments, the fluorescence of the oxidized product 2′,7′-dichlorofluorescin (DCF) was monitored by flow cytometry using a FACSCalibur (BD Bioscience, San Diego, Calif.). For each sample, 10,000 events were recorded and the data analyzed to determine median fluorescence intensity.\n(§5) Within 1 hour of treatment, Bz-423 increased ROS production in a dose-dependent manner in lymphoid cells. To determine if the anti-proliferative responses to Bz-423 in keratinocytes and fibroblasts similarly involve ROS generation, intracellular ROS levels in Bz-423 treated cells were measured. […]"}, "[14]": {"test_system": "keratinocytes", "assay": "intracellular ROS (DCF, flow cytometry)", "format": "cell-based, human", "description": "as §3, §4, §5"}},
  "data": [
    {"smiles": "CN1C(=O)C(Cc2ccc3ccccc3c2)N=C(c2ccc(O)cc2)c2cc(Cl)ccc21", "note": "(stereo not shown) [Bz-423]", "values": [
      {"measurement": "Ki", "setting": "[1]", "result": "~9", "unit": "µM"},
      {"measurement": "Ki", "setting": "[2]", "result": "11 ± 0.4", "unit": "µM"},
      {"measurement": "EC50", "setting": "[2]; ATPase activity EC50 (μM), Hydrolysis", "result": 8.9, "unit": "µM"},
      {"measurement": "EC50", "setting": "[2]; ED 50, inhibition of mitochondrial ATPase activity", "result": "~5", "unit": "µM"},
      {"measurement": "Kd", "setting": "[3]", "result": "0.2 ± 0.04", "unit": "µM"},
      {"measurement": "EC50", "setting": "[4]", "result": 10.7, "unit": "µM"},
      {"measurement": "EC50", "setting": "[5]", "result": 11.9, "unit": "µM"},
      {"measurement": "EC50", "setting": "[6]", "result": 13.7, "unit": "µM"},
      {"measurement": "EC50", "setting": "[7]", "result": 13.4, "unit": "µM"},
      {"measurement": "EC50", "setting": "[8]", "result": 12.9, "unit": "µM"},
      {"measurement": "EC50", "setting": "[9]", "result": 18, "unit": "µM"},
      {"measurement": "EC50", "setting": "[10]", "result": 13.7, "unit": "µM"},
      {"measurement": "EC50", "setting": "[11]", "result": 15.9, "unit": "µM"},
      {"measurement": "EC50", "setting": "[12]", "result": 18.2, "unit": "µM"},
      {"measurement": "lowest dose with an ROS response", "setting": "[13]", "result": 250, "unit": "nM"},
      {"measurement": "lowest dose with an ROS response", "setting": "[14]", "result": 250, "unit": "nM"}
    ]}
  ]
}
